Assay results as given in patent publication US20250296971A1, “GASTRIC INHIBITORY PEPTIDE RECEPTOR LIGANDS” (priority 2021, published 2025).
*1 amine or outer side, *2 acyl side, *3 side chain or, on linkers, in order; H or OH if unused. Where a SMILES comes first, the peptide text is derived from it. Bridges are numbered along the chain shown (N, C = ends). [ ]: non-standard residue; d: D form. Trp(5-Cl) = N[C@@H](Cc1c[nH]c2ccc(Cl)cc12)C(=O)O; Phe(3,4-Cl2) = N[C@@H](Cc1ccc(Cl)c(Cl)c1)C(=O)O; Pyridine(2,6-diCH2) = c1cc(C[*:1])nc(C[*:2])c1; Phe(2,4-Cl2) = N[C@@H](Cc1ccc(Cl)cc1Cl)C(=O)O; Phe(3-Cl) = N[C@@H](Cc1cccc(Cl)c1)C(=O)O; Phe(4-Cl) = N[C@@H](Cc1ccc(Cl)cc1)C(=O)O; mXylylene = c1cc(C[*:1])cc(C[*:2])c1; Hyp = O=C(O)[C@@H]1C[C@@H](O)CN1; pS = N[C@@H](COP(=O)(O)O)C(=O)O; Aic = NC1(C(=O)O)Cc2ccccc2C1; Suc = O=C(CCC(=O)[*:2])[*:1]; hCys = N[C@@H](CCS)C(=O)O; Ac5c = NC1(C(=O)O)CCCC1; Thp = NC1(C(=O)O)CCOCC1

Target: T1, GIPR (CHO-K1-hGIPR cells) (Homo sapiens, UniProt P48546)
T1 construct: host or cells: CHO-K1
T1 sequence (P48546 22-466): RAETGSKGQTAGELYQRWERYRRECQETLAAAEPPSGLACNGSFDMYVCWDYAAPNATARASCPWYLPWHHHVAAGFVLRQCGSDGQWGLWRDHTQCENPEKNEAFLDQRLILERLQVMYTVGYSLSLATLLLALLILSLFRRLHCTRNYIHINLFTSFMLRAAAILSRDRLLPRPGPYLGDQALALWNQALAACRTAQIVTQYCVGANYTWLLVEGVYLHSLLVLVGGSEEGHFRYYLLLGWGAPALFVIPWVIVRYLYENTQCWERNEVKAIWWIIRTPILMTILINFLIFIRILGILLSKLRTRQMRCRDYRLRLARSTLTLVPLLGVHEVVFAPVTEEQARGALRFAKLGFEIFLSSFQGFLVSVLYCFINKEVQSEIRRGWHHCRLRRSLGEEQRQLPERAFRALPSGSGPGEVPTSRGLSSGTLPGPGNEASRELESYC
Experiment: FACS binding assay
Conditions: competition with 20 nM GIP-057, 4° C., 1 hour, read-out: pIC50 Category (converted)
Outline: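 Read-out: flow cytometric median fluorescence intensity, APC/Cy5 channel, plotted vs peptide conc.; 4PL fit → EC50/pEC50 or IC50/pIC50. Cells: CHO-K1-hGIPR, Accutase-detached, 500.000/mL in PBS + 1% FCS. Detection: APC-streptavidin 1 μg/mL, 30 min, on ice.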

| Structure (SMILES) | IC50 |
| --- | --- |
| CC[C@H](C)[C@@H]1NC(=O)[C@H](CC(C)C)NC(=O)C2(CCOCC2)NC(=O)[C@@H](NC(=O)[C@@H](CC(C)C)NC(=O)[C@H](CCC(=O)O)NC(=O)[C@@H]2CCCN2C(=O)[C@H](Cc2c[nH]c3ccc(Cl)cc23)NC(=O)[C@H](Cc2c[nH]c3ccccc23)NC(=O)CCC(=O)O)CSCc2cccc(c2)CSC[C@@H](C(N)=O)NC1=O [GIP-199] (Suc-W[Trp(5-Cl)]PE[dL]C[Thp]LIC-NH2; linker 6-10 via mXylylene) | < 10 nM |
| CC[C@H](C)[C@@H]1NC(=O)[C@H](CC(C)C)NC(=O)C2(CCOCC2)NC(=O)[C@@H](NC(=O)[C@@H](CC(C)C)NC(=O)[C@H](CCC(=O)O)NC(=O)[C@@H]2C[C@@H](O)CN2C(=O)[C@H](Cc2c[nH]c3ccc(Cl)cc23)NC(=O)[C@H](Cc2c[nH]c3ccccc23)NC(=O)[C@H](CC(=O)O)NC(C)=O)CCSCc2cccc(n2)CSC[C@@H](C(N)=O)NC1=O [GIP-200, Ac-Asp-Trp-5Clw-Hyp-Glu-leu-[Hcy(2Lut)-Thp-Leu-Ile-Cys]-NH2] (Ac-DW[Trp(5-Cl)][Hyp]E[dL][hCys][Thp]LIC-NH2; linker 7-11 via Pyridine(2,6-diCH2)) | < 10 nM |
| CC[C@H](C)[C@@H]1NC(=O)[C@H](CC(C)C)NC(=O)C2(CCOCC2)NC(=O)[C@@H](NC(=O)[C@@H](CC(C)C)NC(=O)[C@H](CCC(=O)O)NC(=O)[C@@H]2C[C@@H](O)CN2C(=O)[C@H](Cc2c[nH]c3ccc(Cl)cc23)NC(=O)[C@H](Cc2c[nH]c3ccccc23)NC(=O)[C@H](CC(=O)O)NC(C)=O)CSCc2cccc(n2)CSCC[C@@H](C(N)=O)NC1=O [GIP-201, Ac-Asp-Trp-5Clw-Hyp-Glu-leu-[Cys(2Lut)-Thp-Leu-Ile-Hcy]-NH2] (Ac-DW[Trp(5-Cl)][Hyp]E[dL]C[Thp]LI[hCys]-NH2; linker 7-11 via Pyridine(2,6-diCH2)) | < 10 nM |
| CC[C@H](C)[C@@H]1NC(=O)[C@H](CC(C)C)NC(=O)C2(CCOCC2)NC(=O)[C@@H](NC(=O)[C@@H](CC(C)C)NC(=O)[C@H](CCC(=O)O)NC(=O)[C@@H]2C[C@@H](O)CN2C(=O)[C@H](Cc2c[nH]c3ccc(Cl)cc23)NC(=O)[C@H](Cc2c[nH]c3ccccc23)NC(=O)[C@H](CC(=O)O)NC(C)=O)CCSCc2cccc(n2)CSCC[C@@H](C(N)=O)NC1=O [GIP-202, Ac-Asp-Trp-5Clw-Hyp-Glu-leu-[Hcy(2Lut)-Thp-Leu-Ile-Hcy]-NH2] (Ac-DW[Trp(5-Cl)][Hyp]E[dL][hCys][Thp]LI[hCys]-NH2; linker 7-11 via Pyridine(2,6-diCH2)) | < 10 nM |
| CC[C@H](C)[C@@H]1NC(=O)[C@H](CC(C)C)NC(=O)C2(CCCC2)NC(=O)[C@@H](NC(=O)[C@@H](CC(C)C)NC(=O)[C@H](CCC(=O)O)NC(=O)[C@@H]2C[C@@H](O)CN2C(=O)[C@H](Cc2c[nH]c3ccc(Cl)cc23)NC(=O)[C@H](Cc2c[nH]c3ccccc23)NC(=O)[C@H](CC(=O)O)NC(C)=O)CSCc2cccc(n2)CSC[C@@H](C(N)=O)NC1=O [GIP-203, Ac-Asp-Trp-5Clw-Hyp-Glu-leu-[Cys(2Lut)-Eca-Leu-Ile-Cys]-NH2] (Ac-DW[Trp(5-Cl)][Hyp]E[dL]C[Ac5c]LIC-NH2; linker 7-11 via Pyridine(2,6-diCH2)) | < 10 nM |
| CC[C@H](C)[C@@H]1NC(=O)[C@H](CC(C)C)NC(=O)C2(CCOCC2)NC(=O)[C@@H](NC(=O)[C@@H](CC(C)C)NC(=O)[C@H](CCC(=O)O)NC(=O)[C@@H]2C[C@@H](O)CN2C(=O)[C@H](Cc2c[nH]c3ccc(Cl)cc23)NC(=O)[C@H](Cc2c[nH]c3ccccc23)NC(=O)[C@H](CCC(N)=O)NC(C)=O)CSCc2cccc(n2)CSC[C@@H](C(N)=O)NC1=O [GIP-204, Ac-Gln-Trp-5Clw-Hyp-Glu-leu-[Cys(2Lut)-Thp-Leu-Ile-Cys]-NH2] (Ac-QW[Trp(5-Cl)][Hyp]E[dL]C[Thp]LIC-NH2; linker 7-11 via Pyridine(2,6-diCH2)) | < 10 nM |
| CC[C@H](C)[C@@H]1NC(=O)[C@H](CC(C)C)NC(=O)C2(CCOCC2)NC(=O)[C@@H](NC(=O)[C@@H](CC(C)C)NC(=O)[C@H](CC(N)=O)NC(=O)[C@@H]2C[C@@H](O)CN2C(=O)[C@H](Cc2c[nH]c3ccc(Cl)cc23)NC(=O)[C@H](Cc2c[nH]c3ccccc23)NC(=O)[C@H](CC(=O)O)NC(C)=O)CSCc2cccc(n2)CSC[C@@H](C(N)=O)NC1=O [GIP-205, Ac-Asp-Trp-5Clw-Hyp-Asn-leu-[Cys(2Lut)-Thp-Leu-Ile-Cys]-NH2] (Ac-DW[Trp(5-Cl)][Hyp]N[dL]C[Thp]LIC-NH2; linker 7-11 via Pyridine(2,6-diCH2)) | < 10 nM |
| CC[C@H](C)[C@@H]1NC(=O)[C@H](CC(C)C)NC(=O)C2(Cc3ccccc3C2)NC(=O)[C@@H](NC(=O)[C@@H](CC(C)C)NC(=O)[C@H](CCC(=O)O)NC(=O)[C@@H]2C[C@@H](O)CN2C(=O)[C@H](Cc2c[nH]c3ccc(Cl)cc23)NC(=O)[C@H](Cc2c[nH]c3ccccc23)NC(=O)[C@H](CC(=O)O)NC(C)=O)CSCc2cccc(n2)CSC[C@@H](C(N)=O)NC1=O [GIP-206, Ac-Asp-Trp-5Clw-Hyp-Glu-leu-[Cys(2Lut)-Aic-Leu-Ile-Cys]-NH2] (Ac-DW[Trp(5-Cl)][Hyp]E[dL]C[Aic]LIC-NH2; linker 7-11 via Pyridine(2,6-diCH2)) | < 10 nM |
| CC[C@H](C)[C@@H]1NC(=O)[C@H](CC(C)C)NC(=O)C2(CCOCC2)NC(=O)[C@@H](NC(=O)[C@@H](CC(C)C)NC(=O)[C@H](CCC(=O)O)NC(=O)[C@@H]2C[C@@H](O)CN2C(=O)[C@H](Cc2c[nH]c3ccc(Cl)cc23)NC(=O)[C@H](Cc2c[nH]c3ccccc23)NC(=O)[C@H](COP(=O)(O)O)NC(C)=O)CSCc2cccc(n2)CSC[C@@H](C(N)=O)NC1=O [GIP-207, Ac-Pse-Trp-5Clw-Hyp-Glu-leu-[Cys(2Lut)-Thp-Leu-Ile-Cys]-NH2] (Ac-[pS]W[Trp(5-Cl)][Hyp]E[dL]C[Thp]LIC-NH2; linker 7-11 via Pyridine(2,6-diCH2)) | < 10 nM |
| CC[C@H](C)[C@@H]1NC(=O)[C@H](CC(C)C)NC(=O)C2(CCOCC2)NC(=O)[C@@H](NC(=O)[C@@H](CC(C)C)NC(=O)[C@H](COP(=O)(O)O)NC(=O)[C@@H]2C[C@@H](O)CN2C(=O)[C@H](Cc2c[nH]c3ccc(Cl)cc23)NC(=O)[C@H](Cc2c[nH]c3ccccc23)NC(=O)[C@H](CC(=O)O)NC(C)=O)CSCc2cccc(n2)CSC[C@@H](C(N)=O)NC1=O [GIP-208, Ac-Asp-Trp-5Clw-Hyp-Pse-leu-[Cys(2Lut)-Thp-Leu-Ile-Cys]-NH2] (Ac-DW[Trp(5-Cl)][Hyp][pS][dL]C[Thp]LIC-NH2; linker 7-11 via Pyridine(2,6-diCH2)) | < 10 nM |
| CC[C@H](C)[C@@H]1NC(=O)[C@H](CC(C)C)NC(=O)C2(CCOCC2)NC(=O)[C@@H](NC(=O)[C@@H](CC(C)C)NC(=O)[C@H](CCC(=O)O)NC(=O)[C@@H]2C[C@@H](O)CN2C(=O)[C@H](Cc2c[nH]c3ccc(Cl)cc23)NC(=O)[C@H](Cc2cccc(Cl)c2)NC(=O)[C@H](CC(=O)O)NC(C)=O)CSCc2cccc(n2)CSC[C@@H](C(N)=O)NC1=O [GIP-209, Ac-Asp-Mcf-5Clw-Hyp-Glu-leu-[Cys(2Lut)-Thp-Leu-Ile-Cys]-NH2] (Ac-D[Phe(3-Cl)][Trp(5-Cl)][Hyp]E[dL]C[Thp]LIC-NH2; linker 7-11 via Pyridine(2,6-diCH2)) | < 10 nM |
| CC[C@H](C)[C@@H]1NC(=O)[C@H](CC(C)C)NC(=O)C2(CCOCC2)NC(=O)[C@@H](NC(=O)[C@@H](CC(C)C)NC(=O)[C@H](CCC(=O)O)NC(=O)[C@@H]2C[C@@H](O)CN2C(=O)[C@H](Cc2c[nH]c3ccc(Cl)cc23)NC(=O)[C@H](Cc2ccc(Cl)cc2)NC(=O)[C@H](CC(=O)O)NC(C)=O)CSCc2cccc(n2)CSC[C@@H](C(N)=O)NC1=O [GIP-210, Ac-Asp-Pcf-5Clw-Hyp-Glu-leu-[Cys(2Lut)-Thp-Leu-Ile-Cys]-NH2] (Ac-D[Phe(4-Cl)][Trp(5-Cl)][Hyp]E[dL]C[Thp]LIC-NH2; linker 7-11 via Pyridine(2,6-diCH2)) | < 10 nM |
| CC[C@H](C)[C@@H]1NC(=O)[C@H](CC(C)C)NC(=O)C2(CCOCC2)NC(=O)[C@@H](NC(=O)[C@@H](CC(C)C)NC(=O)[C@H](CCC(=O)O)NC(=O)[C@@H]2C[C@@H](O)CN2C(=O)[C@H](Cc2c[nH]c3ccc(Cl)cc23)NC(=O)[C@H](Cc2ccc(Cl)c(Cl)c2)NC(=O)[C@H](CC(=O)O)NC(C)=O)CSCc2cccc(n2)CSC[C@@H](C(N)=O)NC1=O [GIP-211, Ac-Asp-Eaa-5Clw-Hyp-Glu-leu-[Cys(2Lut)-Thp-Leu-Ile-Cys]-NH2] (Ac-D[Phe(3,4-Cl2)][Trp(5-Cl)][Hyp]E[dL]C[Thp]LIC-NH2; linker 7-11 via Pyridine(2,6-diCH2)) | < 10 nM |
| CC[C@H](C)[C@@H]1NC(=O)[C@H](CC(C)C)NC(=O)C2(CCOCC2)NC(=O)[C@@H](NC(=O)[C@@H](CC(C)C)NC(=O)[C@H](CCC(=O)O)NC(=O)[C@@H]2C[C@@H](O)CN2C(=O)[C@H](Cc2c[nH]c3ccc(Cl)cc23)NC(=O)[C@H](Cc2ccc(Cl)cc2Cl)NC(=O)[C@H](CC(=O)O)NC(C)=O)CSCc2cccc(n2)CSC[C@@H](C(N)=O)NC1=O [GIP-212, Ac-Asp-Egm-5Clw-Hyp-Glu-leu-[Cys(2Lut)-Thp-Leu-Ile-Cys]-NH2] (Ac-D[Phe(2,4-Cl2)][Trp(5-Cl)][Hyp]E[dL]C[Thp]LIC-NH2; linker 7-11 via Pyridine(2,6-diCH2)) | < 10 nM |
